The source of these data is PubChem BioAssay (NCI).

Common to all, as to test: NCI-60 cell line screen, 48 h
Experiment [1] relates to K-562 leukemia.
In experiment [2] the test system is UACC-62 melanoma.
Experiment [3] has as its system EKVX NSCLC.
Experiment [4] relates to BT-549 breast.
The test system of experiment [5] is OVCAR-4 ovarian.
The subject of experiment [6] is TK-10 renal.
The subject of experiment [7] is 786-0 renal.
Experiment [8] concerns A498 renal.
For experiment [9], the system named is NCI/ADR-RES ovarian.
Experiment [10] deals with DU-145 prostate.

Where “and” joins values, the source holds several entries; their conditions need not be identical. Equal values may be shown once.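 How tested: cells in 96-well plates exposed to compound for 48 hours at five concentrations. GI50 is the concentration that inhibits growth by half. TGI: concentration producing complete growth inhibition.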

Take `CC1CCCc2c1nn(C(=O)/C=C(\N)c1ccccc1)c2N` (stereo not given): the GI50 in [1] is 4.99 µM; in experiment [2], 9.45 µM; in experiment [3], 16.5 µM; in experiment [4], 24.3 µM; in [5], 12.8 µM; in [6], 28.9 µM. The GI50 in experiment [7] was 16.2 µM; in experiment [8], 9.64 µM; in experiment [9] it was 6.03 µM; in experiment [10], 14.5 µM. Besides, the TGI is over 100 µM in experiment [1]; 41.5 µM in experiment [2]; 44.1 µM in experiment [3]; 93.7 µM in experiment [4]; over 100 µM in [5]; over 100 µM in experiment [6]. The TGI in experiment [7] is over 100 µM; in experiment [8], 90.5 µM; in experiment [9], 39.4 µM; in [10] it was over 100 µM.

On to `OC(c1ccc(Br)cc1)(c1cccs1)C1CC1` (stereo not given), for which the TGI is over 100 µM in experiment [1]; 33.3 µM in experiment [2]; over 100 µM in experiment [3]; 58.2 µM in [4]; 66.7 µM in experiment [5]; 76.4 µM in [6]. Moreover, the TGI amounted to 36 µM in [7], 45.2 µM in experiment [8], 60.5 µM in experiment [9] and 81.6 µM in [10].

`Cc1ncc(C(=O)Nc2ccc(CN3CCN(C)CC3)c(C(F)(F)F)c2)cc1C#Cc1cnc(NC2CC2)c2ncccc12`: the GI50 in [1] was 0.0211 µM; in experiment [2], 0.874 µM; in experiment [3], 0.659 µM; in experiment [4], 4.28 µM; in experiment [5], 1.49 µM; in experiment [6], 0.78 µM. The GI50 in experiment [7] is 0.65 µM; in [8], 1.78 µM; in experiment [9] it was 2.32 µM; in experiment [10] it was 0.65 µM. Moreover, the TGI came to 0.476 µM in experiment [1]; 2.38 µM in [2]; 1.21 µM in [3]; 8.56 µM in [4]; 3.27 µM in experiment [5]; 1.31 µM in experiment [6]. The TGI in experiment [7] turned out to be 1.16 µM; in experiment [8] it was 5.56 µM; in [9], 5.28 µM; in [10], 1.22 µM.

As to `Cc1cc2c(Br)cc(Br)c(O)c2nc1C(=O)c1ccccc1`, the TGI in experiment [1] was 52.1 µM; in experiment [2] it was 15.3 µM; in experiment [3], over 100 µM; in experiment [4] it was over 100 µM; in experiment [5] it was over 100 µM; in [6], over 100 µM. In addition, the TGI in experiment [7] was 28.6 µM; in experiment [8], over 100 µM; in [9], over 100 µM; in experiment [10], over 100 µM.

As to `CCCCCCCCCCN=C(c1ccc(N(C)C)cc1)c1ccc(N(C)C)cc1`, the GI50 is 0.207 µM in experiment [1]; 0.508 µM in experiment [2]; 1.04 µM in experiment [3]; 0.857 µM in experiment [4]; 3.29 µM in [5]; 3.81 µM in experiment [6]. In addition, the GI50 in experiment [7] is 3.61 µM; in experiment [8], 0.457 µM; in [9] it was 0.406 µM; in [10], 2.42 µM. For the same molecule, the TGI is over 100 µM in [1]; over 38.4 µM in experiment [2]; over 100 µM in experiment [3]; 52.9 µM in [4]; over 83.6 µM in experiment [5]; 49.7 µM in [6]. Further, the TGI in experiment [7] is 36.8 µM; in experiment [8], 6.33 µM; in experiment [9] it was 42.4 µM; in [10] it was over 83 µM.

`C=C1CC2(OC1=O)C(=O)N(CCCN1C(=O)C3(CC(=C)C(=O)O3)c3ccccc31)c1ccccc12` (stereo not given): the GI50 in experiment [1] was 0.385 µM; in experiment [2], 1.54 µM; in experiment [3], 13.6 µM; in experiment [4], 2.69 µM; in experiment [5], 1.52 µM; in experiment [6], 1.54 µM. Further, the GI50 in experiment [7] is 1.68 µM; in experiment [8], 3.12 µM; in experiment [9], 2.52 µM; in [10], 1.73 µM. Also, the TGI in experiment [1] came out at 2.07 µM; in experiment [2], 3.11 µM; in experiment [3], 26.7 µM; in [4] it was 9.65 µM; in [5] it was 3.14 µM; in experiment [6], 2.98 µM. Moreover, the TGI in experiment [7] was 3.9 µM; in experiment [8], 17 µM; in experiment [9], 9.44 µM; in [10], 3.52 µM.

For the molecule `CCN(CC)CCNC(=O)c1c(C)[nH]c(/C=C2\C(=O)Nc3ccc(F)cc32)c1C`, the GI50 in experiment [1] is 2.29 µM and 3.22 µM and 1.53 µM; in experiment [2], > 10 µM and 3.26 µM and 4.12 µM; in experiment [3] it was > 10 µM and 5.27 µM and 8.38 µM; in experiment [4], 4.84 µM and 3.32 µM and 3.67 µM; in [5], > 10 µM and 2.41 µM and 2.76 µM; in experiment [6], 2.78 µM and 2.01 µM and 5.52 µM. For the same molecule, the GI50 in experiment [7] was 4.13 µM and 3.07 µM and 2.3 µM; in experiment [8], > 10 µM and 2.21 µM and 2.84 µM; in experiment [9] it was > 10 µM and 4.48 µM and 5.31 µM; in experiment [10] it was 3.73 µM and 2.83 µM and 2.19 µM. The TGI is > 10 µM and 9.75 µM and 5.57 µM in experiment [1]; > 10 µM and 6.98 µM and 10.9 µM in [2]; > 10 µM and 20 µM and 21.9 µM in experiment [3]; > 10 µM and 6.12 µM and 12.6 µM in experiment [4]; > 10 µM and 9.23 µM and 15 µM in experiment [5]; > 10 µM and 5.81 µM and 20.9 µM in experiment [6]. Besides, the TGI in [7] is > 10 µM and 6.16 µM and 7.76 µM; in experiment [8], > 10 µM and 4.83 µM and 15.4 µM; in [9] it was > 10 µM and 13.4 µM and 17.9 µM; in [10] it was > 10 µM and 20 µM and 15.5 µM.
